Measurements published in PMC9781916, “Antipsychotic- and Anxiolytic-like Properties of a Multimodal Compound JJGW08 in Rodents” (International Journal of Molecular Sciences, 2022).

Key:
mice [1] = assay: MK-801-induced hyperlocomotion test in mice; format: in vivo; conditions: doses 0.15–2.5 mg/kg ip, MK-801 0.2 mg/kg ip
Method: Locomotor activity was recorded in actometers separately for each mouse. After 30 min of adaptation, the number of crossings of photo beams was measured during 60 min. […] MK-801 (0.2 mg/kg, ip) was administered 15 min before the experiment, while amphetamine (2.5 mg/kg) was administered subcutaneously (sc) 30 min before the experiment. […] Values are expressed as means ± SD, n = 8–10 mice per group. Statistical analysis: one-way ANOVA (Newman–Keuls post hoc), * p < 0.05, ** p < 0.01, *** p < 0.001.
The test was performed according to the method described by Carlsson et al.. The mobility of the animals was measured in actometers, i.e., in plastic Opto M3 cages (22 × 12 × 13 cm) connected to a computer with MultiDevice Software v.1.30 (Columbus Instruments, Columbus, OH, USA). The experimental cages were equipped with infrared sources on one side and sensors receiving the emitted rays on the other side of the cage. The crossing of each beam of infrared rays was classified as motor activity. The animals were placed individually in experimental cages immediately after administration of the tested compound, 30 min before the start of the test, to adapt to the new conditions and exclude the occurrence of hyperactivity caused by the change of the environment. Spontaneous locomotor activity was measured every 5 min for 60 min. Mice received two injections: of the tested compound or reference substance (30 min before the test, ip) and of amphetamine (2.5 mg/kg, 30 min before the test, sc) or MK-801 (0.2 mg/kg, 15 min before the test, ip). Control groups received an injection of saline and amphetamine or MK-801, or two injections of saline, respectively. Olanzapine was used as a reference compound.

mice [2] = assay: Rotarod test in mice; format: in vivo; conditions: for Animals That Fell from Rotating Rod: 30 min before test; for Time before Animals Fell: max 60 s, mean ± SD
Method: Mice were trained on the rotarod apparatus (May Commat RR0711, Ankara, Turkey; rod diameter: 2 cm) for 3 consecutive days. During each training session, animals were placed for 3 min on the rotating rod (24 rpm, constant speed) with unlimited trials. The experiment was performed 24 h after the last training session. On the test day, mice were injected with studied compounds and, 30 min later, placed on the rotarod. The criterion of motor impairments was the inability of the animal to remain on the rotating rod for 60 s.

mice [3] = assay: Four-plate test in mice; format: in vivo
Method: Figure 2 The effect of JJGW08 on the number of punished crossings in the four-plate test. Mice were placed in the apparatus, and after a 15 s adaptation period, each mouse crossing from one plate to another was punished with an electric shock. JJGW08 was administered intraperitoneally (ip) 30 min before the test. The control group received 0.9% NaCl solution (ip). Values are expressed as means ± SD, n = 8–10 mice per group. Statistical analysis: one-way ANOVA (Newman–Keuls post hoc), ** p < 0.01.
The four-plate test was performed on mice according to the previously described method. Mice were placed individually in the four-plate apparatus (Panlab, Barcelona, Spain). After a 15 s habituation period, each mouse that crossed from one plate to another (two limbs on one plate, two on another) was punished by an electric shock (0.8 mA, 0.5 s). The number of punished crossings was calculated during the 60 s of the test.

D2 receptors = test system: D2 receptors; parameters: method as in doi:10.1016/j.molstruc.2022.134585; conditions: cited from earlier work
[4] = biological target: human serotonin 5-HT7 receptor (Homo sapiens, UniProt P34969); assay: Functional assay (cAMP, TR-FRET) in CHO-K1 cells, 5-HT7 receptor
Method: Test and reference compounds were dissolved in DMSO at a concentration of 1 mM. Serial dilutions were prepared in a 96-well microplate in assay buffer, and 8 to 10 concentrations were tested. […] A functional assay based on cells expressing the human 5-HT7 receptor was performed according to the previously described protocol [16, 45]. CHO-K1 cells were transfected with a beta-lactamase (bla) reporter gene under the control of the cyclic AMP response element (CRE) (Life Technologies, Carlsbad, CA, USA).

[5] = 5-HT7, antagonist mode, 10 nM serotonin as reference agonist

human serotonin 5-HT7 receptor, sequence (P34969 whole entry): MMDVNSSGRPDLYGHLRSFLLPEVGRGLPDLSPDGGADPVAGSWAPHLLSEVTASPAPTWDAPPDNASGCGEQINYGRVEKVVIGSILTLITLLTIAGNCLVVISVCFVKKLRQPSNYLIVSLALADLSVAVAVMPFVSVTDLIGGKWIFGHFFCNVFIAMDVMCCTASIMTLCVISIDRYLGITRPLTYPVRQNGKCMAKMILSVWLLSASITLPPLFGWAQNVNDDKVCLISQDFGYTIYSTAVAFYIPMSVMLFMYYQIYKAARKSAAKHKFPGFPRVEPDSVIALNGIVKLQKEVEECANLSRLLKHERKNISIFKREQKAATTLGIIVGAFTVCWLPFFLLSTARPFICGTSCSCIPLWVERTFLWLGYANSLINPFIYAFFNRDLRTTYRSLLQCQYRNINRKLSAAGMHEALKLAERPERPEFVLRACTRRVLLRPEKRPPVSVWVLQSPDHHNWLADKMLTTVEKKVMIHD

COc1ccccc1N1CCN(CCCCCOc2ccccc2C(N)=O)CC1.Cl [JJGW08, 2-{5-[4-(2-metoksyfenylo)piperazin-1-ylo]pentoxy}benzamide hydrochloride]
reduction of MK-801-induced hyperactivity (mice [1]): 24–71%
TD50 relative to the lowest antipsychotic-like dose (mice [2]): 121 fold
Animals That Fell from Rotating Rod (mice [2]; 10 mg/kg ip): 2/8
Time before Animals Fell (mice [2]; 10 mg/kg ip): 58 ± 4 s
Animals That Fell from Rotating Rod (mice [2]; 20 mg/kg ip): 4/8
Time before Animals Fell (mice [2]; 20 mg/kg ip): 41 ± 24 s
Animals That Fell from Rotating Rod (mice [2]; 30 mg/kg ip): 6/8
Time before Animals Fell (mice [2]; 30 mg/kg ip): 20 ± 25 s
TD50 (mice [2]; ip, dose at which 50% of the animals could not stay on the rotating rod): 18 (11–29) mg/kg
increase in the number of punished crossings (mice [3]; 0.3 mg/kg ip): 54%
increase in the number of punished crossings (mice [3]; 0.625 mg/kg ip): 49%
affinity (in words) (D2 receptors): high affinity
Agonist Mode Emax% ([4]; 5-HT7, agonist mode): 1%
Antagonist Mode Emax% [4, 5]: 4%
Antagonist Mode pIC50 ± Range [4, 5]: 6.4 ± 0.1
antagonistic properties (in words) ([4]; 5-HT7 functional assay): very weak antagonistic properties
Kb ([4]; read-out: Antagonist Mode Kb, 5-HT7, antagonist mode, Cheng equation): 190 nM
